Measurements reported in patent US9888690B2, “Insecticidal compounds from Nothapodites foetida and process for the extraction thereof” (priority 2011, dated 2018).
Values after ≈ are worked out from the molar mass of the structure shown. Where two headings read alike, the source gives them in different places.

Key:
THP 1 cell line = assay: MTT cell proliferation assay; format: cell-based; conditions: Homo sapiens, read-out: MTT assay against THP 1 cell line % Inhibition
Procedure: Camptothecanoid 1, 2 and 3 and Phthalate were tested for their inhibitory effect on THP-1 cells. About 10,000 cells were taken per well in 96-well tissue culture plates and treated with test samples at 100 μg/ml for 72 h. Vehicle control (DMSO, 1%) and positive control (Paclitaxel, 100 μg/ml) was run simultaneously. Cell proliferation was assessed with 10 μl from 5 mg/ml stock solution of tetrazolium salt (MTT) dissolved in cell culture medium and subsequently incubated for additional 1 h at 37° C., 5% of CO2 and 95% humidity in incubator. The violet coloured formazan crystals formed were solubilized in 200 μl of isopropanol and incubated for another 4 h. The optical density was read on a micro plate reader (Spectramax plus384 plate reader, Molecular Devices Inc) at 490 nm filter against a blank prepared from cell-free wells. Absorbance given by cells treated with the carrier DMSO alone was taken as 100% cell growth (Table 2).

[1] = system: Mycobacterium tuberculosis Ra; assay: XTT assay, anti-mycobacterial activity; format: cell-based, M. tuberculosis H37Ra (ATCC 25177); conditions: for inhibition at 100 µg/mL: inhibition at 100 μg/ml, 8th day of incubation
Procedure: M. tuberculosis H37Ra (ATCC 25177) cells, obtained from MTCC (Chandigarh, India), were grown to logarithmic phase (O.D, 0.595˜1.0) in a defined medium (M. pheli medium) under aerobic conditions in a shaker incubator (Thermo Electron Corporation Model 481) maintained at 150 rpm and 37° C. After growth, the culture was sonicated for 2 min using water bath sonicator. Sonicated cells were used for inoculation in micro plate wells. […] of culture containing ˜1×10^5 cells/ml was added to each well of 96 well plates. Camptothecanoid 1, 2 and 3 and Phthalate, […], dissolved in DMSO (Sigma), were added to the wells to attain a final concentration of 100 µg/ml respectively for screening. Then, the plate was incubated in a CO2 incubator at 37° C. The plate was taken out on the 8th day of incubation to measure the viable cell counts. The optical density of the culture was measured before addition of XTT (Sigma) at 470 nm which was served as a blank for the MIC calculations. XTT, 200 µM, was added and incubated for 20 min at 37° C. after shaking for 1 min. After 20 min of incubation, 60 µM Menadione (Sigma) was added and incubated at 37° C. for 40 min after mixing of 1 min. Finally, the optical density of the suspension was measured at 470 nm by using microplate reader. Isoniazid (Sigma) was used as a positive control.

[2] = system: Sitophilus oryzae and Rhizopertha dominica; assay: whole plant or invertebrate; format: in vivo
Procedure: The bioefficacy of the extracts were screened against S. oryzae and R. dominica on wheat at 1000 ppm. Required quantity of the extract dissolved in 6 ml of the solvent was pipetted over 60 gm wheat, taken in a 500 ml beaker. The grain was stirred with a glass rod to obtain uniform application. The control grain received the solvent alone. The treated grain was spread on petridish and kept overnight (12 hrs) for the solvent to evaporate. The 60 gm grain was divided into three lots of 20 gm each, taken in test tubes 25 mm diameter and 95 mm long.
Fifteen unsexed adults, 1-2 weeks old, of the rice weevil, Sitophilus oryzae and the lesser grain borer, Rhizopertha dominica were seeded into the tubes separately. The tubes were covered with muslin held by rubber bands. The mortality of the test insects was recorded after 1, 3, 7, 14 and 21 days. After the last count, the insects were discarded and the grain incubated to obtain the F1 progeny. The number of emerging progeny was recorded every second day till the emergence was complete. The progeny/adult day was calculated by Kazmaier et. al method. The progeny/adult day corrects for the reduction in the number of progeny due to adult mortality. A significant reduction in the progeny/adult day compared to the control indicates Insect Growth Regulating (IGR) activity, which is presented in Tables 1, 2 and 3.
Camptothecin obtained from Sigma Aldrich was assayed on wheat against S. oryzae and R. dominica as in example 1.

[3] = THP-1, inhibition at 100 μg/ml, 72 h

With `CC[C@H](OC1OC(CO)C(O)C(O)C1O)c1cc2n(c(=O)c1C)Cc1cc3ccccc3nc1-2` (stereo partly shown) [Camptothecanoid 1] as the compound, how does the inhibition at 100 µg/mL (THP 1 cell line; THP-1, 72 h) read?
The inhibition at 100 µg/mL was 70.9%.

What about the inhibition at 100 µg/mL [1] of the same compound?
The inhibition at 100 µg/mL was 48.3%.

Which results are given for `CC[C@](O)(C(=O)O)c1cc2n(c(=O)c1COC(C)=O)Cc1cc3ccccc3nc1-2` [Camptothecanoid 2]?
inhibition at 100 µg/mL (THP 1 cell line; THP-1, 72 h): 87.5%; inhibition at 100 µg/mL [1]: 88.4%

What does the source list for `CC[C@](O)(C(=O)O)c1cc2n(c(=O)c1COC(C)=O)Cc1cc3c(OC)cccc3nc1-2` [Camptothecanoid 3]?
inhibition at 100 µg/mL (THP 1 cell line; THP-1, 72 h): 90.2%; inhibition at 100 µg/mL [1]: 59%

Which “No. of F1 progeny” value ([2]; 6.25 ppm on wheat) does the source give for `CC[C@@]1(O)C(=O)OCc2c1cc1n(c2=O)Cc2cc3ccccc3nc2-1` [Camptothecin] here?
Its value is 00.

What about the “No. of F1 progeny” value ([2]; 12.50 ppm on wheat) of the same compound?
Its value is 00.

What about the “adult mortality (in words)” value ([2]; 12.50 ppm on wheat) of the same compound?
Its value is “no adult mortality”.

What about the “No. days for 100% kill” value ([2]; 25 ppm on wheat) of the same compound?
The value was 21 days.

And the “No. of F1 progeny” value ([2]; 25 ppm on wheat)?
The value was 00.

What about the “No. days for 100% kill” value ([2]; 50 ppm on wheat) of the same compound?
The value was 14 days.

And the “No. of F1 progeny” value ([2]; 50 ppm on wheat)?
The value was 00.

What about the “No. days for 100% kill” value ([2]; 75 ppm on wheat) of the same compound?
Its value is 7 days.

What about the “No. of F1 progeny” value ([2]; 75 ppm on wheat) of the same compound?
The value was 00.

What about the “No. days for 100% kill” value ([2]; 100 ppm on wheat) of the same compound?
Its value is 3 days.

What about the “No. of F1 progeny” value ([2]; 100 ppm on wheat) of the same compound?
The value was 00.

What about the mortality at 6.25 ppm ([2]; Sitophilus oryzae) of the same compound?
The mortality at 6.25 ppm was 0%.

What about the mortality at 12.5 ppm ([2]; Sitophilus oryzae) of the same compound?
The mortality at 12.5 ppm was 0%.

What about the mortality at 25 ppm ([2]; Sitophilus oryzae) of the same compound?
The mortality at 25 ppm was 100%.

And the mortality at 50 ppm ([2]; Sitophilus oryzae)?
Its mortality at 50 ppm is 100%.

What about the mortality at 75 ppm ([2]; Sitophilus oryzae) of the same compound?
The mortality at 75 ppm was 100%.

And the mortality at 100 ppm ([2]; Sitophilus oryzae)?
The mortality at 100 ppm was 100%.

And the inhibition at 12.5 ppm ([2]; Sitophilus oryzae, read-out: inhibition of F1 progeny)?
The inhibition at 12.5 ppm was 100%.

How did the IC90 ([1]; read-out: IC90, XTT assay Mycobacterium tuberculosis Ra) turn out when `NNC(=O)c1ccncc1` [Isoniazid] was run?
Its IC90 is 0.05 µg/mL (≈ 0.365 µM).

Which inhibition at 100 µg/mL (THP 1 cell line; [3]) does the source give for `CC(=O)O[C@H]1C(=O)[C@@]2(C)[C@H]([C@H](OC(=O)c3ccccc3)[C@]3(O)C[C@H](OC(=O)[C@H](O)[C@@H](NC(=O)c4ccccc4)c4ccccc4)C(C)=C1C3(C)C)[C@]1(OC(C)=O)CO[C@@H]1C[C@@H]2O` [Paclitaxel] here?
The inhibition at 100 µg/mL was 61%.

`CCCCCCCC(CC)COC(=O)c1ccccc1C(=O)OCC(CC)CCCCCCC` (stereo not shown) [Phthalate] was tested. Which inhibition at 100 µg/mL (THP 1 cell line; [3]) did it give?
The inhibition at 100 µg/mL was 20.1%.

What about the inhibition at 100 µg/mL [1] of the same compound?
Its inhibition at 100 µg/mL is 45.6%.
